The values below come from patent US9676820B2, “Method for inhibiting proliferation of high LIX1L-expressing tumor cell, and tumor cell proliferation-inhibiting peptide” (National University Corporation Hamamatsu University School …, priority 2013, dated 2017).

Holding throughout (assay type): cell-based
The test system of one experiment is K562 strain. In words: MTT assay, K562 strain. As for the experimental part: (§1) Specifically, first, cells plated in a 96-well microplate such that the density thereof became 5×10^3 cells/well were cultured for one night in a culture solution having the same composition as those in the reference examples. Thereafter, the culture solution was exchanged with 100 μL of a culture solution of which the concentration of peptides is 0 μM to 100 μM for culturing for 72 hours. After the culturing, an MTT-containing PBS solution was added to the culture solution, and the mixture was incubated for 4 hours. Then, formazan which was generated by putting 100 μL of isopropanol (containing 34 (v/v) % of hydrochloric acid) into each of the wells was dissolved. The absorbance of each of the wells of the microplate at 570 nm was measured using a microplate reader. As controls, culturing was performed in the same manner except that no peptide was added to the strains, an MTT assay was performed thereon, and the absorbance at 570 nm was measured (untreated).
Specifically, the cells were cultured for 72 hours similarly to Example 2 except that a peptide to be added to a cell strain was set to peptide 1, 3, or 4, or a control peptide, an MTT assay was performed thereon, and the absorbance at 570 nm was measured.
(§2) In the method for measuring the viable cell counts, cells were cultured for 3 days similarly to Example 1 except that a 25 μM (10 μM for an HL-60 strain, a K562 strain, and a U937 strain) culture solution containing a control peptide or a peptide 1 was used, and the viable cell counts were measured. As a comparison, culturing was performed similarly to the above using a culture solution containing no peptide, and the viable cell counts were measured (untreated).
(§3) In addition, in the method for performing an MTT assay, cells were cultured for 72 hours similarly to Example 2 except that a peptide to be added to a strain was set to a control peptide or a peptide 1 at 25 μM (10 μM for an HL-60 strain, a K562 strain, and a U937 strain), an MTT assay was performed thereon, and the absorbance at 570 nm was measured. As a comparison, culturing was performed similarly to the above using a culture solution containing no peptide, and the MTT assay was performed thereon (untreated).
(§4) Specifically, the cells were cultured for 72 hours similarly to Example 2 except that a peptide to be added to a cell was set to a peptide 1, 2, 5, or 6, MTT assays were performed thereon, and the absorbance at 570 nm was measured. As a comparison, culturing was performed similarly to the above using a culture solution containing no peptide, and the MTT assay was performed thereon (untreated).
Specifically, the cells were cultured for 72 hours similarly to Example 2 except that peptides to be added to cell strains were set to peptides 7 to 14, MTT assays were performed thereon, and the absorbance at 570 nm was measured. As a comparison, culturing was performed similarly to the above using a culture solution containing no peptide, and the MTT assay was performed thereon (untreated).
Specifically, the cells were cultured for 72 hours similarly to Example 2 except that a peptide to be added to a cell strain was set to a peptide 15 or 16, an MTT assay was performed thereon, and the absorbance at 570 nm was measured. As a comparison, culturing was performed similarly to the above using a culture solution containing no peptide, and the MTT assay was performed thereon (untreated).

The test system of a further experiment is MKN45 strain. Briefly: MTT assay, MKN45 strain. The method, then:
as §1, with “Thereafter, the culture solution was exchanged with 100 μL of a culture solution of which the concentration of peptides is 0 μM to 100 μM for culturing for 72 hours.” left out
as §2, §3, §4
Specifically, the cells were cultured for 72 hours similarly to Example 2 except that peptides to be added to cell strains were set to peptides 7 to 14, MTT assays were performed thereon, and the absorbance at 570 nm was measured. […]
Specifically, the cells were cultured for 72 hours similarly to Example 2 except that a peptide to be added to a cell strain was set to a peptide 15 or 16, an MTT assay was performed thereon, and the absorbance at 570 nm was measured. […]
In general terms: Formazan colour is commonly taken as a measure of viable cells.

Another experiment concerns the target T1, 136th tyrosine of LIX1L (Homo sapiens, UniProt Q8IVB5).
T1 construct: expressed in transfected cells
Briefly: Tyrosine phosphorylation of LIX1L by immunoprecipitation and Western blotting in 293 FLG/LIX1L cells. The settings on record: cultured 14 days with peptide. The method, then:
First, a cell strain (293 FLG) in which only FLAG was forcibly expressed, a cell strain (293 FLG/LIX1L) in which a LIX1L protein with a FLAG tag was forcibly expressed, and a cell strain (293 FLG/LIX1L/PY136) in which a LIX1L protein with a FLAG tag for adding a peptide thereto was forcibly expressed were prepared through the same method as Reference Example 5, and were cultured and proliferated.
Next, the 293 FLG/LIX1L/PY136 cells were cultured for 14 days in a culture solution containing a peptide 1 through the same method as that in Example 3. The 293 FLG cells and the 293 FLG/LIX1L cells were cultured for 14 days in the same manner as above using a culture solution containing no peptide 1.
Next, the 293 FLG cells, the 293 FLG/LIX1L cells, and the 293 FLG/LIX1L/PY136 cells were respectively cultured in 10% FCS-containing DMEM culture media to which Hygromycin B at […] was added, for 14 days. Then, the cultured cells were separated into nuclear fractions and cytoplasm fractions using Nuclear/Cytosol Fractionation Kit (manufactured by BioVison, Inc.). Immunoprecipitation was performed on both the obtained fractions using an anti-FLAG antibody (manufactured by Sigma-Aldorich Co. LLC.) and an agarose-binding protein A (manufactured by Sigma-Aldorich Co. LLC.), protein separation was performed thereon through 12% SDS-PAGE, and the fractions were transferred to a film. […]

Where [1] appears, read: 72 hours, peptide concentrations up to 250 μM.

T1 sequence (Q8IVB5 with tags, fused parts or gaps): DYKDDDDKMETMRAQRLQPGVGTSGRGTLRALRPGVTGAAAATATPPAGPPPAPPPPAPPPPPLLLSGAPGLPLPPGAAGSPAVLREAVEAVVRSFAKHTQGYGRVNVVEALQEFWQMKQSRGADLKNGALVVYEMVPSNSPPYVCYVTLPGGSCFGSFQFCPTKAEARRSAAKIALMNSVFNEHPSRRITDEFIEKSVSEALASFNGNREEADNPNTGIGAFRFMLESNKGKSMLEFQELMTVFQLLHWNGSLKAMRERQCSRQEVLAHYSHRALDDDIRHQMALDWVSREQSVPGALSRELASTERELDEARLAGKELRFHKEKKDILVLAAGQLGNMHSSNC

Take `CC(C)[C@H](NC(=O)[C@H](Cc1ccc(O)cc1)NC(=O)[C@H](CS)NC(=O)[C@@H](NC(=O)[C@H](Cc1ccc(O)cc1)NC(=O)[C@@H]1CCCN1C(=O)[C@@H]1CCCN1C(=O)[C@H](CO)NC(=O)[C@H](CC(N)=O)NC(=O)[C@H](CO)NC(=O)[C@@H]1CCCN1C(=O)CCCCCNC(=O)[C@H](CCCNC(=N)N)NC(=O)[C@H](CCCNC(=N)N)NC(=O)[C@H](CCCNC(=N)N)NC(=O)[C@H](CCC(N)=O)NC(=O)[C@H](CCCNC(=N)N)NC(=O)[C@H](CCCNC(=N)N)NC(=O)[C@H](CCCCN)NC(=O)[C@H](CCCCN)NC(=O)[C@H](CCCNC(=N)N)NC(=O)CNC(=O)[C@@H](N)Cc1ccc(O)cc1)C(C)C)C(N)=O` [peptide 1, YGRKKRRQRRR-X-PSNSPPYVCYV-NH2]: the “cell proliferation (MTT assay, absorbance at 570 nm)” value in the experiment on K562 strain (setting [1]) and with MKN45 strain (setting [1]) was “inhibited” each time. The “concentration at which a dominant effect of inhibiting the cell proliferation was recognized” value in the experiment on K562 strain (MTT assay, 72 hours) is given as “greater than or equal to 6.25 μM”. The “absorbance at 570 nm (MTT assay), influence on cell proliferation” value with K562 strain (peptide 0 μM to 100 μM, 72 hours) is given as “inhibited”. The “cell proliferation (viable cell counts and MTT assay)” value was “inhibited” with K562 strain (peptide 10 μM, 3 days / 72 hours) and “inhibited” in the experiment on MKN45 strain (peptide 25 μM, 3 days / 72 hours). Besides, the results for the “phosphorylation of the 136th tyrosine of LIX1L” value at 136th tyrosine of LIX1L (cytoplasm fraction of 293 FLG/LIX1L/PY136 cell) and at 136th tyrosine of LIX1L (nuclear fraction of 293 FLG/LIX1L/PY136 cell) were “significantly inhibited” and “slightly inhibited”, respectively.
